Here are results for four compounds from patent US20130310374A1, “Substituted Imidazoquinoline Derivatives” (PIRAMAL ENTERPRISES LIMITED`, priority 2010, published 2013).

One assay has as its target T1, PI3Kα (Homo sapiens, UniProt P42336).
T1 construct: purchased Upstate Millipore
Description: p110α radioactive lipid kinase assay (PI3Kα). The assay is classed as biochemical. Particulars: 25 μM ATP. How it is done: Protocol for Kinase Assay (PI3Kα)
p110α Radioactive Lipid Kinase Assay
The assay was designed as in the reference, Journal of Biomolecular Screening, 2002, Vol. 7, No. 5, 441-450, the disclosure of which is incorporated herein by reference for the teaching of the assay.
The p110α biochemical assay was performed using a radioactive assay measuring the incorporation of ^32P into the p110α substrate, phosphatidylinsoitol (PI). For the generation of IC50 curves, the reaction was performed in a 96-well MaxiSorp plates. Plates were pre-coated with 4 μg/well of a 1:1 ratio of phosphatidylinositol (PI: Avanti #840042C) and phosphatidylserine (PS: Avanti #840032C) diluted in CHCl3. Equal amount of p110α (Upstate Millipore) protein was added to each well, containing 25 μL reaction buffer (50 mM MOPSO pH7.0, 100 mM NaCl, 4 mM MgCl2, 0.1% (w/v) BSA) whereas, for negative control, only reaction buffer was added. Compounds of the present invention dissolved in DMSO were treated at nine-point dose responses (0.3, 1, 3, 6, 10, 30, 60, 100 and 300 nM). Reactions were initiated by the addition of 25 μM ATP solution (Sigma, USA) containing 50 μCi/mL [γ-^32P]-ATP and incubated at RT for 2 hours with gentle shaking. […] The radioactivity incorporated into the immobilized PI substrate was determined with Top Count (Perkin Elmer). Inhibition was calculated using the following equation: […]

In another assay the test system is U 87 MG. Put plainly: Cytotoxicity propidium iodide assay, U 87 MG. The format is cell-based. The conditions noted are these: Homo sapiens; U 87 MG (glioblastoma), 48 hours treatment; read-out: IC50 Values in μM, C5c. How it is done: (§1) The assay was designed as in the reference, Anticancer Drugs, 2002, 13, 1-8, the disclosure of which is incorporated herein by reference for the teaching of the assay.
(§2) Cells from cell lines (ATCC) as mentioned in the table given below were seeded at a density of 3000 cells/well in a white opaque 96-well plate. Following incubation at 37° C./5% CO2 for a period of 18-24 hours, the cells were treated with various concentrations (stock solution was prepared in DMSO and subsequent dilutions were made in media as per ATCC guidelines) of the compounds of the present invention for a period of 48 hours. At the end of treatment, the culture medium was discarded, the cells were washed with 1×PBS and 200 μL of […] propidium iodide was added to each well. […] For analysis, the plates were warmed to RT, allowed to thaw and were read in PoleStar fluorimeter with the fluorescence setting. The percentage of viable cells in the non-treated set of wells was considered to be 100 and the percentage viability following treatment was calculated accordingly. IC50 values were calculated from graphs plotted using these percentages. IC50 values for certain compounds of present invention are depicted in Table 1 and % Inhibition of certain compounds of present invention are depicted in Table 2.

The subject of another assay is arthritic DBA/1 J mice. Put plainly: Collagen-induced arthritis. The format is in vivo, mouse. The conditions noted are these: 1 mg/kg, p.o., twice daily. The method, then:
Protocol for Collagen-Induced Arthritis
Induction of Collagen-Induced Arthritis and Treatment with Compound of Example 19
All animal experiments were carried out in accordance with the guidelines of Committee for the Purpose of Control and Supervision of Experiments on Animals (CPCSEA). All animal experiments were approved by Institutional Animal Ethics Committee (IAEC) of Piramal Life Sciences Limited, Mumbai, India. Collagen-induced arthritis was induced in DBA/1 J mice as described in J. Exp. Med., 1985, 162, 637-46. Inbred male DBA/1 J mice (8-10 weeks of age, Jackson Laboratories, Bar Harbor, Me.) were immunized intradermally at the base of the tail with 200 μg type II collagen emulsified in Freund's Complete Adjuvant (FCA) on day 0. On day 17, immunized mice were randomized into different groups based on their body weight. From day 17 onwards, (i) one group of mice started receiving administration of compound of Example 19 (1 mg/kg, p.o., twice daily), (ii) a second group of mice started receiving administration of vehicle (0.5% CMC, p.o., twice daily), and (iii) a third group of mice started receiving administration of Enbrel (3 mg/kg, s.c., once daily). On day 21, all mice were boosted with 200 μg type II collagen emulsified in FCA. The mice (8 per treatment group) were monitored daily (from day 17 onwards) for the development and severity of arthritis using articular index and paw thickness as parameters. Articular index scoring was performed employing the following criteria—Fore limbs (Scale 0-3): 0, no redness or swelling; 1, redness but no swelling; 2, redness and swelling of the paw; 3, redness and severe swelling of the paw. […] Swelling of each of the paws of mice was measured with constant-tension, spring-loaded calipers (Mitutoyo, Aurora, Ill.). […]
Treatment continued daily until day 36 of the study, and the body weight of the animal along with the severity of inflammation for all 4 paws was monitored daily. […]

For a further assay, the system named is KCL22. Put plainly: Cytotoxicity propidium iodide assay, KCL22. The format is cell-based. The conditions noted are these: Homo sapiens, KCL-22; KCL22 (CML), 48 hours treatment; read-out: IC50 Values in μM, C6f. How it is done: as §1, §2

T1 sequence (P42336 whole entry, species assumed): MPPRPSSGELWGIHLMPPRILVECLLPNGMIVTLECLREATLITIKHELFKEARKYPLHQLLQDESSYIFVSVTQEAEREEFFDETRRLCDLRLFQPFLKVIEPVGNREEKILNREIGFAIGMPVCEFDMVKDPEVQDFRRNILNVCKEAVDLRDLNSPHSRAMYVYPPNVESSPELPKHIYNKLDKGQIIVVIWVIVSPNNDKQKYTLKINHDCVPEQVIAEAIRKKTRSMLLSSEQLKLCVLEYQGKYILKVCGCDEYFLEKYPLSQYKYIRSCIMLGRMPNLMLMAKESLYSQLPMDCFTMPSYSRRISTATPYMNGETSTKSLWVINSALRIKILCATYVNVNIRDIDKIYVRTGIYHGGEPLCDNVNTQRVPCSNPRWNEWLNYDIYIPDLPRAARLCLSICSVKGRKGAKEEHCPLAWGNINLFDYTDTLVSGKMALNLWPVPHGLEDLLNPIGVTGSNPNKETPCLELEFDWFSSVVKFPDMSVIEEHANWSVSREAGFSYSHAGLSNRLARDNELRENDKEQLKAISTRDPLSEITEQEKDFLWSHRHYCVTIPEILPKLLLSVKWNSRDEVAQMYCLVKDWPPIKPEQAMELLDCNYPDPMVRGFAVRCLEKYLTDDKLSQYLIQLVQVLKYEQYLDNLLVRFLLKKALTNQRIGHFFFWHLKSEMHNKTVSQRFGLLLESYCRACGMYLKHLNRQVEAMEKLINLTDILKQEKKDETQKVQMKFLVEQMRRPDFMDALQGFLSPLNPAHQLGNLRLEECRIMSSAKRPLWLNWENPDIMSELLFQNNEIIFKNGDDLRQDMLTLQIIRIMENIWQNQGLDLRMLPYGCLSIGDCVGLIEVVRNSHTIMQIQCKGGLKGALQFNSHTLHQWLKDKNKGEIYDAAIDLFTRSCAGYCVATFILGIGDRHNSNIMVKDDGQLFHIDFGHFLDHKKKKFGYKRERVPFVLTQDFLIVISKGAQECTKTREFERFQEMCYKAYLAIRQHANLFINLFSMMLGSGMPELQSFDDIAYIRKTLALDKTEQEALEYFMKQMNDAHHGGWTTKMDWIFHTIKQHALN
T1 sequence (P27986 whole entry partner, species assumed): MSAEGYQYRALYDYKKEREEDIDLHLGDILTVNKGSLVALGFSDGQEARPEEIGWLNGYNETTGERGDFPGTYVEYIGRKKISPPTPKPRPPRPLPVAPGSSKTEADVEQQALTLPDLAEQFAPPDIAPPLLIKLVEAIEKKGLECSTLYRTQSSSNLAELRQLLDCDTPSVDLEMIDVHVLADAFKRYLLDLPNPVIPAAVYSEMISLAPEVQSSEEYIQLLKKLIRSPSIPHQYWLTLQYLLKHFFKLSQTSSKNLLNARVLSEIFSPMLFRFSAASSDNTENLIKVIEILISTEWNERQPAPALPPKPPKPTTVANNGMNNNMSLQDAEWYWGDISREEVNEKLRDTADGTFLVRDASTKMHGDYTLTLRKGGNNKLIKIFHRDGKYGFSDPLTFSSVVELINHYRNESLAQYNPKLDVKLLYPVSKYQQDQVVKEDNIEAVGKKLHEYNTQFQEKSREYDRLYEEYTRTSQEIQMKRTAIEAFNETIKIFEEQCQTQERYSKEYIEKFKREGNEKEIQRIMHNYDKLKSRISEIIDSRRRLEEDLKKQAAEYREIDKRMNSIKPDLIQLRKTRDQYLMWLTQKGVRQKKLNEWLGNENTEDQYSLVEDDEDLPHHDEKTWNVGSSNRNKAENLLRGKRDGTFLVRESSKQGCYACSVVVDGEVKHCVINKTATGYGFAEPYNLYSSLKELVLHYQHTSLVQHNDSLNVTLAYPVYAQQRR

As usually defined, the IC50 is the point on the concentration scale where inhibition reaches its midpoint. In the case of `CS(=O)(=O)O.Cn1c(=O)n(-c2ccc(C(C)(C)C#N)nc2)c2c3cc(-c4cnc(N)c(C(F)(F)F)c4)ccc3ncc21` [Example 3a, 8-(6-Amino-5-(trifluoromethyl)pyridin-3-yl)-1-(6-(2-cyanopropan-2-yl)pyridin-3-yl)-3-methyl-2-oxo-2,3-dihydro-1H-imidazo[4,5-c]quinolin-5-ium methanesulfonate], the IC50 on PI3Kα turned out to be 0.00137 µM.
In the case of `CC(C)(C#N)c1ccc(-n2c(=O)n(CC#N)c3cnc4ccc(-c5cnc(N)c(C(F)(F)F)c5)cc4c32)cn1` [Example 16, 2-(5-(8-(6-Amino-5-(trifluoromethyl)pyridin-3-yl)-3-(cyanomethyl)-2-oxo-2,3-dihydro-1H-imidazo[4,5-c]quinolin-1-yl)pyridin-2-yl)-2-methylpropanenitrile], the half-maximal inhibitory concentration (IC50) in the assay with U 87 MG was determined as 7.75 µM.
For `COc1ccc(-n2c(=O)n(C)c3cnc4ccc(-c5cnc(N)c(C(F)(F)F)c5)cc4c32)cn1` [Example 19, 8-(6-Amino-5-(trifluoromethyl)pyridin-3-yl)-1-(6-methoxypyridin-3-yl)-3-methyl-1H-imidazo[4,5-c]quinolin-2(3H)-one], the concentration for half-maximal inhibition (IC50) at PI3Kα worked out at 0.00289 µM; in the assay with U 87 MG, 3.88 µM. Further, the “Bone erosion and joint space narrowing” value in the assay with arthritic DBA/1 J mice (day 17 to day 36) was “distinctly protects against bone erosion and joint space narrowing”. Besides, in the assay with arthritic DBA/1 J mice (day 17 to day 36), the “Joint destruction, hyperproliferative pannus formation and infiltration of inflammatory cells” value was “prominently diminishes joint destruction, hyperproliferative pannus formation and infiltration of inflammatory cells”. Moreover, the “Disease-associated increase in articular index and paw thickness” value in the assay on arthritic DBA/1 J mice (day 17 to day 36, FIGS. 4a and 4b) is “inhibits disease-associated increase in articular index and paw thickness”.
Turning to `Cn1c(=O)n(-c2ccc(C(C)(C)C#N)nc2)c2c3cc(-c4cnc(N)c(C(F)(F)F)c4)ccc3ncc21` [Example 3, 2-(5-(8-(6-Amino-5-(trifluoromethyl)pyridin-3-yl)-3-methyl-2-oxo-2,3-dihydro-1H-imidazo[4,5-c]quinolin-1-yl)pyridin-2-yl)-2-methylpropanenitrile], the IC50 with KCL22 was 2 µM.
